Values quoted from earlier work, collected in patent US20250177296A1, “SLURRY AND SOLUTION COMPOSITIONS” (MIRAKI INNOVATION THINK TANK LLC, priority 2018, published 2025).

Conditions: pretreatment with 2% lidocaine

In the case of `CCN(CC)CC(=O)Nc1c(C)cccc1C` [lidocaine], the “Effect of pretreatment on pain response associated with hypertonic saline” value is given as “attenuates pain response”.
